Data: US20250257061A1, “COMPOSITIONS AND METHODS FOR TREATING CANCER AND REDUCING WNT MEDIATED EFFECTS” (StemSynergy Therapeutics, Inc., priority 2024, published 2025)
Like-named read-outs stand apart in the source and are kept apart here. Blank lines part the entries; values can stand above or below the compound they belong to.

Legend:
[1] = test system: Wnt reporter (TCF/LEF1 promoter); experiment: HEK STF293 Wnt reporter (TOPFlash) luciferase assay, Steady Glo normalised to Cell Titer; assay type: cell-based, human
Method in brief: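 HEK STF293 cells carrying a TCF/LEF1-driven firefly luciferase were stimulated with Wnt3a-conditioned media (1:1) and compound at final 100 μM to 1 nM. Next day, lysates were read by Steady Glo luminescence. EC50 was derived from Steady Glo divided by Cell Titer to normalize for cell number.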

[2] = test system: Wnt-dependent HCT116 cell line; experiment: Viability assay using Wnt-dependent HCT116 cell line (Cell Titer Glo); assay type: cell-based
Method in brief: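 HCT116 cells at 2,500 cells/well were treated on day 2 with DMSO-diluted compounds further diluted 500-fold in medium, giving a final 0.1% DMSO. Viability was read on day 5 by Cell Titer Glo luminescence.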

[3] = Homo sapiens, STF/293, Examples for Formulae (I), (II), and (III), HEK STF293 cells, Wnt3a-conditioned media, read-out: TOPFlash IC50 category
[4] = Homo sapiens, HCT-116, Examples for Formulae (I), (II), and (III), HCT116 cells, read-out: Viability IC50 category
[5] = Homo sapiens, STF/293, Examples for Formulae (IV), (V), (VI), and (VII), HEK STF293 cells, Wnt3a-conditioned media, read-out: TOPFlash IC50 category
[6] = Homo sapiens, HCT-116, Examples for Formulae (IV), (V), (VI), and (VII), HCT116 cells, read-out: Viability IC50 category
[7] = Homo sapiens, STF/293, Examples for Formulae (VIII), (IX), and (X), HEK STF293 cells, Wnt3a-conditioned media, read-out: TOPFlash IC50 category
[8] = Homo sapiens, HCT-116, Examples for Formulae (VIII), (IX), and (X), HCT116 cells, read-out: Viability IC50 category
[9] = Examples for Formulae (IV), (V), (VI), and (VII), HEK STF293 cells, Wnt3a-conditioned media, read-out: TOPFlash IC50 category
[10] = Examples for Formulae (IV), (V), (VI), and (VII), HCT116 cells, read-out: Viability IC50 category

Structure (SMILES): CC(C)(C)c1nc(-c2ccc(F)cc2)c(C(=O)Nc2nc(-c3ccccn3)cs2)o1 [Example 23]
IC50 ([1]; Homo sapiens, STF/293, read-out: TOPFlash IC50 category): 200 to 500 nM
IC50 ([2]; Homo sapiens, HCT-116, read-out: Viability IC50 category): 200 to 500 nM

IC50 [2, 4]: 1000 to 10000 nM
Structure (SMILES): Cc1nn(-c2ccc(F)cc2)c(C)c1C(=O)Nc1nc(-c2ccccn2)cs1 [Example 5]
IC50 [1, 3]: 1000 to 10000 nM

IC50 [2, 6]: 200 to 500 nM
Structure (SMILES): Cc1onc(-c2ccc(Cl)cc2Cl)c1C(=O)Nc1nc(-c2ccccn2)cs1 [Example 17]
IC50 [1, 5]: 200 to 500 nM

IC50 [2, 8]: 200 to 500 nM
Structure (SMILES): O=C(Nc1nc(-c2ccccn2)cs1)c1ccc(=O)n(Cc2ccccc2Cl)c1 [Example 5]
IC50 [1, 7]: 200 to 500 nM

IC50 [2, 8]: 500 to 1000 nM
Structure (SMILES): O=C(Nc1nc(-c2ccccn2)cs1)c1ccc(=O)n(-c2ccccc2F)c1 [Example 3]
IC50 [1, 7]: 200 to 500 nM

IC50 [2, 6]: 200 to 500 nM
Structure (SMILES): O=C(Nc1nc(-c2ccccn2)cs1)c1oc(CN2CCOCC2)nc1-c1ccc(F)cc1 [Example 72]
IC50 [1, 5]: 200 to 500 nM

IC50 [2, 6]: 500 to 1000 nM
Structure (SMILES): COc1ccc(S(=O)(=O)N(C)c2ncc(C(=O)Nc3nc(-c4ccccn4)cs3)o2)cc1 [Example 39]
IC50 [1, 5]: 500 to 1000 nM

IC50 [2, 4]: 500 to 1000 nM
Structure (SMILES): Cc1nn(Cc2ccc(Cl)cc2Cl)c(Cl)c1C(=O)Nc1nc(-c2ccccn2)cs1 [Example 13]
IC50 [1, 3]: 500 to 1000 nM

IC50 [2, 6]: 200 to 500 nM
Structure (SMILES): COCc1nc(-c2ccc(F)cc2)c(C(=O)Nc2nc(-c3ccccn3)cs2)o1 [Example 69]
IC50 [1, 5]: 200 to 500 nM

IC50 [2, 10]: 200 to 500 nM
Structure (SMILES): CS(=O)(=O)c1cccc(-c2ncoc2C(=O)Nc2nc(-c3ccccn3)cs2)c1 [Example 48]
IC50 [1, 9]: 500 to 1000 nM

IC50 [2, 10]: 1000 to 10000 nM
Structure (SMILES): CN(C(=O)c1ccc(Cl)cc1)c1ncc(C(=O)Nc2nc(-c3ccccn3)cs2)o1 [Example 34]
IC50 [1, 9]: 1000 to 10000 nM

IC50 [2, 6]: 1000 to 10000 nM
Structure (SMILES): CN(C(=O)c1ccccc1Cl)c1nc(C(F)(F)F)c(C(=O)Nc2nc(-c3ccccn3)cs2)o1 [Example 78]
IC50 [1, 5]: 500 to 1000 nM

IC50 [2, 6]: 500 to 1000 nM
Structure (SMILES): COc1cccc(-c2noc(C)c2C(=O)Nc2nc(-c3ccccn3)cs2)c1 [Example 18]
IC50 [1, 5]: 200 to 500 nM

IC50 [2, 4]: 1000 to 10000 nM
Structure (SMILES): COc1ccc(Cn2cc(C(=O)Nc3nc(-c4ccccn4)cs3)cn2)cc1 [Example 3]
IC50 [1, 3]: 1000 to 10000 nM

IC50 [2, 10]: < 200 nM
Structure (SMILES): Cc1nc(-c2ccc(-c3nnc(C(F)(F)F)o3)cc2)c(C(=O)Nc2nc(-c3ccccn3)cs2)o1 [Example 66]
IC50 [1, 9]: < 200 nM

Structure (SMILES): CN(c1ncc(C(=O)O)o1)S(=O)(=O)c1ccc(Cl)cc1 [Example 37]
IC50 [1, 9]: < 200 nM
IC50 [2, 10]: 200 to 500 nM

IC50 [2, 6]: < 200 nM
Structure (SMILES): CC(C)CS(=O)(=O)N(C)c1nc(-c2ccc(F)cc2)c(C(=O)Nc2nc(-c3ccccn3)cs2)o1 [Example 60]
IC50 [1, 5]: < 200 nM

IC50 [2, 4]: 200 to 500 nM
Structure (SMILES): O=C(Nc1nc(-c2ccccn2)cs1)c1cn(-c2ccccc2)nc1-c1ccccc1 [Example 14]
IC50 [1, 3]: < 200 nM
